Reference: patent publication US20220235421A1, “DETECTING AND TREATING CISPLATIN SENSITIVE CANCER” (The Cleveland Clinic Foundation, priority 2021, published 2022)

Test system: epithelial-based cancer cell lines (GDSC)
Assay: Cell Line Persistence Curve of cisplatin IC50 in the GDSC dataset, by CisSig score cohort
Conditions: cisplatin concentration approximately 5
Source text: FIG. 11C compares the distribution of IC50 between cohorts of GDSC cell lines in this top and bottom quintile of CisSig score. We are terming this plot a “Cell Line Persistence Curve”, which resembles a Kaplan-Meier survival curve, but uses IC50 in place of survival time for cell lines. […] For example, when cisplatin concentration reaches approximately 5 approximately 50% of the resistant cohort remains with a greater IC50, while only 20% of the sensitive cohort remains with a greater IC50. In other words, cell lines predicted to be resistant tend to have greater IC50 values and cell lines predicted to be sensitive tend to have lower IC50 values.
The drug response data in the GDSC database was last updated 27 Mar. 2018; this version is referred to as “GDSC2.” Cisplatin drug concentration is reported in μM. Raw viability data were processed using the R package, gdscIC50, where they were normalized with negative controls (media alone) and positive controls (media only wells with no cells). Dose-response curves were fit using a multi-level fixed effect model with a classic sigmoidal curve shape assumed. This model was fitted using all cell line/drug combinations that were screened instead of fitting separate models to individual drug-response series. […]

With N.N.[Cl][Pt][Cl] [cisplatin] the “proportion of the cohort remaining with a cisplatin IC50 greater than the cisplatin concentration” value (resistant cohort (bottom quintile of CisSig score)) was “approximately 50%” and the “proportion of the cohort remaining with a cisplatin IC50 greater than the cisplatin concentration” value (sensitive cohort (top quintile of CisSig score)) was 20%.
